Consider 13 compounds from US20260042762A1 (Kymera Therapeutics, Inc., priority 2018, published 2026).

The structures appear in SMILES notation. Where only a bound is given, the exact number is not on record here.

The target of this assay is T1, MerTK (Homo sapiens, UniProt Q12866).
T1 construct: endogenous in cells; host or cells: Jurkat cells
T1 sequence (Q12866 21-999): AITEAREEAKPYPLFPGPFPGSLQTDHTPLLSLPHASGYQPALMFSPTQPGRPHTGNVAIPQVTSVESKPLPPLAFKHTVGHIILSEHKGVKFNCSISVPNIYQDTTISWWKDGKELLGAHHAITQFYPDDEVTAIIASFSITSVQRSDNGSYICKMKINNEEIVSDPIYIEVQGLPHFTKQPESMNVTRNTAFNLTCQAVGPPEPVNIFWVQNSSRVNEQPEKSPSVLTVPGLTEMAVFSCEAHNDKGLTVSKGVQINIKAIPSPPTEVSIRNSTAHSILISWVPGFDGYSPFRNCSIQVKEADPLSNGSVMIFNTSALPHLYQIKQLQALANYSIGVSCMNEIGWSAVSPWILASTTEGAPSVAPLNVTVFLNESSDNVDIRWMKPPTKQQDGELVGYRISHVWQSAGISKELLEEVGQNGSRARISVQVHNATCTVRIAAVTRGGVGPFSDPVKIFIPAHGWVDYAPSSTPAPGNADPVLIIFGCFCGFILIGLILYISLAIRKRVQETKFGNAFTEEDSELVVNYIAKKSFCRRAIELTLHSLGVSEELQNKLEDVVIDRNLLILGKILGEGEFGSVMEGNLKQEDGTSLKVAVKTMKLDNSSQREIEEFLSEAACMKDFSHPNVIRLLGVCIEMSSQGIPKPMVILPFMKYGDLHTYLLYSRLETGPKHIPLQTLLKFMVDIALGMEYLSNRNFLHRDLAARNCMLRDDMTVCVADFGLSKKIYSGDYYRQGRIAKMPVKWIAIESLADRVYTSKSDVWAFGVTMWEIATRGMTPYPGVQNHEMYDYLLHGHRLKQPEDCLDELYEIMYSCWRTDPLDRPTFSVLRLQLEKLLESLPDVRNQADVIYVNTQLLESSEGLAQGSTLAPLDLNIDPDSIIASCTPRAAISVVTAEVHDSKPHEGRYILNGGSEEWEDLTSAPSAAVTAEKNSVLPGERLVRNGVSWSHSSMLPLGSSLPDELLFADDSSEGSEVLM
In words: MerTk degradation in Jurkat cells (Western blot). It is filed as cell-based. The note with it: Jurkat, 4 h, 0.001-1 μM, 4 hour-incubation at 37° C., read-out: Jurkat Max % MerTK Degradation. The gist of the method:
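MerTK degradation was read by near-infrared Western blot, normalized to actin, in BCA-quantified lysates of Jurkat cells exposed to 0.001-1 μM compound for 4 h at 37 °C.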
(In general: A western blot detects proteins with antibodies after separation by electrophoresis.)
With `Cn1c(=O)n([C@H]2CCC(=O)NC2=O)c2cccc(COCCN3CCN(Cc4ccc(-c5cn([C@H]6CC[C@H](O)CC6)c6nc(NCCC(F)(F)F)ncc56)cc4)CC3)c21` [I-152, 3-[3-methyl-2-oxo-4-[(2-[4-[(4-[7-[trans-4-hydroxycyclohexyl]-2-[(3,3,3-trifluoropropyl)amino]pyrrolo[2,3-d]pyrimidin-5-yl]phenyl)methyl]piperazin-1-yl]ethoxy)methyl]-1,3-benzodiazol-1-yl]piperidine-2,6-dione; bis(formic acid)], the Dmax was more than 50%. For the compound `Cn1c(=O)n([C@H]2CCC(=O)NC2=O)c2ccc(CCCOCCOCCN3CCN(C[C@H]4CC[C@@H](c5cn([C@H]6CC[C@H](O)CC6)c6nc(NCCC(F)(F)F)ncc65)CC4)CC3)cc21` [I-153, 3-[3-methyl-2-oxo-5-(3-[2-[2-(4-[[(1s,4s)-4-[7-[trans-4-hydroxycyclohexyl]-2-[(3,3,3-trifluoropropyl)amino]pyrrolo[2,3-d]pyrimidin-5-yl]cyclohexyl]methyl]piperazin-1-yl)ethoxy]ethoxy]propyl)-1,3-benzodiazol-1-yl]piperidine-2,6-dione], the Dmax is more than 50%. With `Cn1c(=O)n([C@H]2CCC(=O)NC2=O)c2ccc(CCCOCCOCCN3CCN(C[C@H]4CC[C@H](c5cn([C@H]6CC[C@H](O)CC6)c6nc(NCCC(F)(F)F)ncc65)CC4)CC3)cc21` [I-154, 3-[3-methyl-2-oxo-5-(3-[2-[2-(4-[[(1r,4r)-4-[7-[trans-4-hydroxycyclohexyl]-2-[(3,3,3-trifluoropropyl)amino]pyrrolo[2,3-d]pyrimidin-5-y1]cyclohexyl]methyl]piperazin-1-y1)ethoxy]ethoxy]propyl)-1,3-benzodiazol-1-yl]piperidine-2,6-dione], the Dmax was more than 50%.

`Cn1c(=O)n([C@H]2CCC(=O)NC2=O)c2ccc(CCOC3CCN(C4CCN(Cc5ccc(-c6cn([C@H]7CC[C@H](O)CC7)c7nc(NCCC(F)(F)F)ncc67)cc5)CC4)CC3)cc21` [I-155, 3-[3-methyl-2-oxo-5-[2-([1-[(4-[7-[trans-4-hydroxycyclohexy1]-2-[(3,3,3-trifluoropropyl)amino]pyrrolo[2,3-d]pyrimidin-5-yl]phenyl)methyl]-[1,4-bipiperidin]-4-yl]oxy)ethyl]-1,3-benzodiazol-1-yl]piperidine-2,6-dione; formic acid]: the Dmax is more than 50%. The result for `Cn1c(=O)n([C@H]2CCC(=O)NC2=O)c2ccc(CCCC3CN(C4CCN(Cc5ccc(-c6cn([C@H]7CC[C@H](O)CC7)c7nc(NCCC(F)(F)F)ncc67)cc5)CC4)C3)cc21` [I-156, 3-[3-methyl-2-oxo-5-[3-(1-[1-[(4-[7-[trans-4-hydroxycyclohexy1]-2-[(3,3,3-trifluoropropyl)amino]pyrrolo[2,3-d]pyrimidin-5-y1]phenyl)methyl]piperidin-4-yl]azetidin-3-yl)propyl]-1,3-benzodiazol-1-yl]piperidine-2,6-dione; formic acid] reads more than 50%; that for `Cn1c(=O)n([C@H]2CCC(=O)NC2=O)c2ccc(COC3CCN(C4CCN(Cc5ccc(-c6cn([C@H]7CC[C@H](O)CC7)c7nc(NCCC(F)(F)F)ncc67)cc5)CC4)CC3)cc21` [I-157, 3-[3-methyl-2-oxo-5-[([1-[(4-[7-[trans-4-hydroxycyclohexy1]-2-[(3,3,3-trifluoropropyl)amino]pyrrolo[2,3-d]pyrimidin-5-yl]phenyl)methyl]-[1,4-bipiperidin]-4-yl]oxy)methyl]-1,3-benzodiazol-1-y1]piperidine-2,6-dione; formic acid], more than 50%; that for `Cn1c(=O)n(C2CCC(=O)NC2=O)c2ccc(CN3CCN([C@H]4CCN(Cc5ccc(-c6cn([C@H]7CC[C@H](O)CC7)c7nc(NCCC(F)(F)F)ncc67)cc5)C4)CC3)cc21` (stereo partly drawn) [I-158, 3-[3-methyl-2-oxo-5-([4-[(3R)-1-[(4-[7-[trans-4-hydroxycyclohexy1]-2-[(3,3,3-trifluoropropyl)amino]pyrrolo[2,3-d]pyrimidin-5-y1]phenyl)methyl]pyrrolidin-3-y1]piperazin-1-yl]methyl)-1,3-benzodiazol-1-yl]piperidine-2,6-dione], more than 50%. In the case of `Cn1c(=O)n([C@H]2CCC(=O)NC2=O)c2cccc(CN3CCC(CC4CCN(Cc5ccc(-c6cn([C@H]7CC[C@H](O)CC7)c7nc(NCCC(F)(F)F)ncc67)cc5)CC4)CC3)c21` [I-159, 3-(3-methyl-2-oxo-4-[[4-([1-[(4-[7-[trans-4-hydroxycyclohexy1]-2-[(3,3,3-trifluoropropyl)amino]pyrrolo[2,3-d]pyrimidin-5-y1]phenyl)methyl]piperidin-4-y1]methyl)piperidin-1-yl]methyl]-1,3-benzodiazol-1-yl)piperidine-2,6-dione], the Dmax is more than 50%. For the compound `Cn1c(=O)n(C2CCC(=O)NC2=O)c2ccc(CCCOCC(F)CN3CCN(Cc4ccc(-c5cn([C@H]6CC[C@H](O)CC6)c6nc(NCCC(F)(F)F)ncc56)cc4)CC3)cc21` (stereo partly drawn) [I-160, 3-[5-[3-(2-fluoro-3-[4-[(4-[7-[trans-4-hydroxycyclohexy1]-2-[(3,3,3-trifluoropropyl)amino]pyrrolo[2,3-d]pyrimidin-5-yl]phenyl)methyl]piperazin-1-yl]propoxy)propyl]-3-methyl-2-oxo-1,3-benzodiazol-1-yl]piperidine-2,6-dione], the Dmax is more than 50%. As to `Cc1ncsc1-c1ccc(CNC(=O)[C@@H]2C[C@@H](O)CN2C(=O)[C@@H](NC(=O)CCCCCN2CCN(Cc3ccc(-c4cn([C@H]5CC[C@H](O)CC5)c5nc(NCCC(F)(F)F)ncc45)cc3)CC2)C(C)(C)C)cc1` [I-161, (2S,4R)-1-[(2S)-3,3-dimethyl-2-(6-[4-[(4-[7-[trans-4-hydroxycyclohexyl]-2-[(3,3,3-trifluoropropyl)amino]pyrrolo[2,3-d]pyrimidin-5-yl]phenyl)methyl]piperazin-1-yl]hexanamido)butanoyl]-4-hydroxy-N-[[4-(4-methyl-1,3-thiazol-5-yl)phenyl]methyl]pyrrolidine-2-carboxamide], the Dmax was less than 20%. Take `Cc1ncsc1-c1ccc(CNC(=O)[C@@H]2C[C@@H](O)CN2C(=O)[C@@H](NC(=O)CCCCCCN2CCN(Cc3ccc(-c4cn([C@H]5CC[C@H](O)CC5)c5nc(NCCC(F)(F)F)ncc45)cc3)CC2)C(C)(C)C)cc1` [I-162, (2S,4R)-1-[(2S)-3,3-dimethyl-2-(7-[4-[(4-[7-[trans-4-hydroxycyclohexyl]-2-[(3,3,3-trifluoropropyl)amino]pyrrolo[2,3-d]pyrimidin-5-yl]phenyl)methyl]piperazin-1-yl]heptanamido)butanoyl]-4-hydroxy-N-[[4-(4-methyl-1,3-thiazol-5-yl)phenyl]methyl]pyrrolidine-2-carboxamide]: the Dmax was less than 20%. Then `Cn1c(=O)n([C@H]2CCC(=O)NC2=O)c2ccc(CCCOCCOC3CCN(C[C@H]4CC[C@H](c5cn([C@H]6CC[C@H](O)CC6)c6nc(NCCC(F)(F)F)ncc65)CC4)CC3)cc21` [I-163], with more than 50%. The result for `Cn1c(=O)n([C@H]2CCC(=O)NC2=O)c2ccc(CCCOCCOCCC3CCN(C[C@H]4CC[C@H](c5cn([C@H]6CC[C@H](O)CC6)c6nc(NCCC(F)(F)F)ncc65)CC4)CC3)cc21` [I-164, 3-[3-methyl-2-oxo-5-(3-[2-[2-(1-[[trans-4-[7-[trans-4-hydroxycyclohexyl]-2-[(3,3,3-trifluoropropyl)amino]pyrrolo[2,3-d]pyrimidin-5-yl]cyclohexyl]methyl]piperidin-4-yl)ethoxy]ethoxy]propyl)-1,3-benzodiazol-1-y1]piperidine-2,6-dione] reads more than 50%.
